Source: patent publication US9556183B2, “Substituted pyrazolylpyrazole derivative and use of same as herbicide” (KYOYU AGRI CO., LTD., priority 2013, dated 2017)

How the values were obtained:
Type in all cases: in vivo
Echinochloa crus-galli = experiment: Paddy herbicidal activity test; settings: irrigated paddy pot, treated at 3.5 leaf stage of Echinochloa crus-galli, 30 days
Method: (§1) Rice paddy soil was filled into a 1/10000 are pot followed by the addition of suitable amounts of water and chemical fertilizer, kneading, seeding with Echinochloa crus-galli, Monochoria vaginalis and Scirpus juncoides and maintaining in an irrigated state at a water depth of 3 cm. Wettable powder of Target Compound (I) shown in Table 1 prepared in compliance with the preparation examples were diluted with a suitable amount of water, rice plants in the 2.0 leaf stage were transplanted during 3.5 leaf stage of Echinochloa crus-galli, and treated by dropping in chemical in the prescribed amount per are using a pipette. After treating for 30 days in a glass greenhouse at an average atmospheric temperature of 30° C., the herbicidal efficacy thereof was investigated. Evaluation of herbicidal efficacy was carried out by comparing growth inhibition rate (%) with an untreated group, while evaluation of phytotoxicity was carried out by comparing growth inhibition rate (%) with the state of a complete eradication group, and were evaluated at 11 levels indicated below. [table]

Monochoria vaginalis = experiment: Paddy herbicidal activity test; settings: irrigated paddy pot, 30 days
Method: as §1

Scirpus juncoides = experiment: Paddy herbicidal activity test; settings: irrigated paddy pot, 30 days
Method: as §1

Rice plants = experiment: Paddy herbicidal activity test, phytotoxicity to transplanted rice; settings: rice transplanted at 2.0 leaf stage, 30 days
Method: as §1

Amaranthus retroflexus [1] = experiment: Farming soil treatment test; settings: soil surface spray prior to weed growth, 30 days
Method: (§2) Evaluation of herbicidal efficacy was carried out by comparing growth inhibition rate (%) with an untreated group, while evaluation of phytotoxicity was carried out by comparing growth inhibition rate (%) with the state of a complete eradication group, and were evaluated at 11 levels indicated below. [table] Field soil was filled into a 1/6000 are pot followed by seeding with Digitaria ciliaris, Chenopodium album and Amaranthus retroflexus and covering with soil. Wettable powder of compounds of formula (I) shown in Table 1 prepared in compliance with the preparation examples were diluted with water to the prescribed amount of chemical and uniformly sprayed onto each soil surface layer using 10 liters of sprayed water per are prior to weed growth following seeding. After treating for 30 days in a glass greenhouse at an average atmospheric temperature of 30° C., the herbicidal efficacy thereof was investigated. Evaluation of herbicidal efficacy was carried out in the same manner as the above-mentioned Test Example 1.

Chenopodium album [2] = experiment: Farming soil treatment test; settings: soil surface spray prior to weed growth, 30 days
Method: as §2

Digitaria ciliaris [3] = experiment: Farming soil treatment test; settings: soil surface spray prior to weed growth, 30 days
Method: as §2

Amaranthus retroflexus [4] = experiment: Weed foliar treatment test; settings: foliar spray, 3 weeks
Method: (§3) Evaluation of herbicidal efficacy was carried out by comparing growth inhibition rate (%) with an untreated group, while evaluation of phytotoxicity was carried out by comparing growth inhibition rate (%) with the state of a complete eradication group, and were evaluated at 11 levels indicated below. [table] Soil was filled into a 1/6000 are pot followed by seeding with Digitaria ciliaris, Chenopodium album and Amaranthus retroflexus, covering with soil, and cultivating in a glass greenhouse at an average atmospheric temperature of 25° C. Wettable powder of Target Compound (I) shown in Table 1 prepared in compliance with the preparation examples were diluted with water to the prescribed amount of chemical and uniformly sprayed onto the weeds using 15 liters of sprayed water per are when Digitaria ciliaris had grown to the 1.0 to 2.0 leaf stage. After treating for 3 weeks in a glass greenhouse at an average atmospheric temperature of 25° C., the herbicidal efficacy thereof was investigated, Evaluation of herbicidal efficacy was carried out in the same manner as the above-mentioned Test Example 1.

Chenopodium album [5] = experiment: Weed foliar treatment test; settings: foliar spray, 3 weeks
Method: as §3

Digitaria ciliaris [6] = experiment: Weed foliar treatment test; settings: foliar spray at 1.0 to 2.0 leaf stage of Digitaria ciliaris, 3 weeks
Method: as §3

| SMILES | herbicidal efficacy (growth inhibition rate level) Echinochloa crus-galli (Echinochloa crus-galli; 1g a.i./10a) | herbicidal efficacy (growth inhibition rate level) Echinochloa crus-galli (Echinochloa crus-galli; 5g a.i./10a) | herbicidal efficacy (growth inhibition rate level) Monochoria vaginalis (Monochoria vaginalis; 1g a.i./10a) | herbicidal efficacy (growth inhibition rate level) Monochoria vaginalis (Monochoria vaginalis; 5g a.i./10a) | herbicidal efficacy (growth inhibition rate level) Scirpus juncoides (Scirpus juncoides; 1g a.i./10a) | herbicidal efficacy (growth inhibition rate level) Scirpus juncoides (Scirpus juncoides; 5g a.i./10a) | phytotoxicity (growth inhibition rate level) Rice plants (Rice plants; 1g a.i./10a) | phytotoxicity (growth inhibition rate level) Rice plants (Rice plants; 5g a.i./10a) | herbicidal efficacy (growth inhibition rate level) Amaranthus retroflexus (Amaranthus retroflexus [1]; 5g a.i./10a) | herbicidal efficacy (growth inhibition rate level) Amaranthus retroflexus (Amaranthus retroflexus [1]; 10g a.i./10a) | herbicidal efficacy (growth inhibition rate level) Chenopodium album (Chenopodium album [2]; 5g a.i./10a) | herbicidal efficacy (growth inhibition rate level) Chenopodium album (Chenopodium album [2]; 10g a.i./10a) | herbicidal efficacy (growth inhibition rate level) Digitaria ciliaris (Digitaria ciliaris [3]; 5g a.i./10a) | herbicidal efficacy (growth inhibition rate level) Digitaria ciliaris (Digitaria ciliaris [3]; 10g a.i./10a) | herbicidal efficacy (growth inhibition rate level) Amaranthus retroflexus (Amaranthus retroflexus [4]; 5g a.i./10a) | herbicidal efficacy (growth inhibition rate level) Amaranthus retroflexus (Amaranthus retroflexus [4]; 10g a.i./10a) | herbicidal efficacy (growth inhibition rate level) Chenopodium album (Chenopodium album [5]; 5g a.i./10a) | herbicidal efficacy (growth inhibition rate level) Chenopodium album (Chenopodium album [5]; 10g a.i./10a) | herbicidal efficacy (growth inhibition rate level) Digitaria ciliaris (Digitaria ciliaris [6]; 5g a.i./10a) | herbicidal efficacy (growth inhibition rate level) Digitaria ciliaris (Digitaria ciliaris [6]; 10g a.i./10a) |
| --- | --- | --- | --- | --- | --- | --- | --- | --- | --- | --- | --- | --- | --- | --- | --- | --- | --- | --- | --- | --- |
| CC1CC1CNc1c(C#N)cnn1-c1nn2c(c1Cl)CCCC2 (stereo not shown) [Compound 12] | 9 (9: 90% to less than 100%) | 10 (10: 100%) | 8 (8: 80% to less than 90%) | 9 (9: 90% to less than 100%) | 9 (9: 90% to less than 100%) | 9 (9: 90% to less than 100%) | 0 (0 (exponent): 0% to less than 10% (growth inhibition rate)) | 1 (1: 10% to less than 20%) | 10 (10: 100%) | 10 (10: 100%) | 10 (10: 100%) | 10 (10: 100%) | 10 (10: 100%) | 10 (10: 100%) | 10 (10: 100%) | 10 (10: 100%) | 10 (10: 100%) | 10 (10: 100%) | 10 (10: 100%) | 10 (10: 100%) |
| N#Cc1cnn(-c2nn3c(c2Br)CCCC3)c1NCC1CC1 [Compound 147] | 8 (8: 80% to less than 90%) | 9 (9: 90% to less than 100%) | 7 (7: 70% to less than 80%) | 8 (8: 80% to less than 90%) | 7 (7: 70% to less than 80%) | 9 (9: 90% to less than 100%) | 0 (0 (exponent): 0% to less than 10% (growth inhibition rate)) | 0 (0 (exponent): 0% to less than 10% (growth inhibition rate)) | 10 (10: 100%) | 10 (10: 100%) | 10 (10: 100%) | 10 (10: 100%) | 10 (10: 100%) | 10 (10: 100%) | 10 (10: 100%) | 10 (10: 100%) | 10 (10: 100%) | 10 (10: 100%) | 10 (10: 100%) | 10 (10: 100%) |
| N#Cc1cnn(-c2nn3c(c2Br)CCCC3)c1N(CC1CC1)C(=O)C(F)(F)F [Compound 148] | 8 (8: 80% to less than 90%) | 10 (10: 100%) | 7 (7: 70% to less than 80%) | 9 (9: 90% to less than 100%) | 7 (7: 70% to less than 80%) | 9 (9: 90% to less than 100%) | 0 (0 (exponent): 0% to less than 10% (growth inhibition rate)) | 0 (0 (exponent): 0% to less than 10% (growth inhibition rate)) | 10 (10: 100%) | 10 (10: 100%) | 10 (10: 100%) | 10 (10: 100%) | 10 (10: 100%) | 10 (10: 100%) | 10 (10: 100%) | 10 (10: 100%) | 10 (10: 100%) | 10 (10: 100%) | 10 (10: 100%) | 10 (10: 100%) |
| N#Cc1cnn(-c2nn3c(c2Cl)CCCC3)c1NCC1CC1(F)F (stereo not shown) [Compound 185] | 10 (10: 100%) | 10 (10: 100%) | 9 (9: 90% to less than 100%) | 9 (9: 90% to less than 100%) | 10 (10: 100%) | 10 (10: 100%) | 0 (0 (exponent): 0% to less than 10% (growth inhibition rate)) | 1 (1: 10% to less than 20%) | 10 (10: 100%) | 10 (10: 100%) | 10 (10: 100%) | 10 (10: 100%) | 10 (10: 100%) | 10 (10: 100%) | 10 (10: 100%) | 10 (10: 100%) | 10 (10: 100%) | 10 (10: 100%) | 10 (10: 100%) | 10 (10: 100%) |
| N#Cc1cnn(-c2nn3c(c2Cl)CCCC3)c1N(CC1CC1(F)F)C(=O)C(F)(F)F (stereo not shown) [Compound 186] | 10 (10: 100%) | 10 (10: 100%) | 9 (9: 90% to less than 100%) | 9 (9: 90% to less than 100%) | 9 (9: 90% to less than 100%) | 10 (10: 100%) | 0 (0 (exponent): 0% to less than 10% (growth inhibition rate)) | 1 (1: 10% to less than 20%) | 10 (10: 100%) | 10 (10: 100%) | 10 (10: 100%) | 10 (10: 100%) | 10 (10: 100%) | 10 (10: 100%) | 10 (10: 100%) | 10 (10: 100%) | 10 (10: 100%) | 10 (10: 100%) | 10 (10: 100%) | 10 (10: 100%) |
